Where “and” joins values, the source holds several entries; their conditions need not be identical. Equal entries are not always repeated. Where two headings read alike, the source gives them in different places. Values belong to the compound of their own block, whether it stands above or below them.
Legend:
[1] = Heparin oral/intracolonic delivery, clotting time by activated partial thromboplastin time (APTT); assay type: in vivo, Sprague-Dawley rats; settings: rats, baseline about 20 seconds
How it was run: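 Heparin sodium with a delivery agent in 25% aqueous propylene glycol, pH about 7, was dosed by oral gavage or intracolonically. Citrated cardiac blood was taken under ketamine (88 mg/kg) at 0.25, 0.5, 1.0 and 1.5 h after dosing. Absorption was read as a rise in APTT clotting time.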

[2] = rat, in vivo, po, 150 mg/kg
Method: (§2) Oral dosing (PO) compositions of a delivery agent compound and salmon calcitonin (sCT) in deionized water were prepared as described in Table 2 below. […] Either the sodium salt of the compound was used or the free acid was converted to the sodium salt by stirring the resultant solution and adding one equivalent of sodium hydroxide (1.0 N) and diluting with water. The solution was vortexed, then heated (about 37° C.) and sonicated. The pH was adjusted to about 7 (about 6.5 to 8.5) with NaOH or HCl. 90 μg sCT from a sCT stock solution (2 mg/ml made by adding 10001 pH 4 phosphate buffer to sCT and allowing it to go into solution by sitting for about 10-20 minutes and periodically gently inverting) was added to the solution.
(§3) The typical dosing and sampling protocols were as follows. Male Sprague-Dawley rats weighing between 200-250 g were fasted for 24 hours and administered ketamine (44 mg/kg) and chlorpromazine (1.5 mg/kg) 15 minutes prior to dosing and again as needed to maintain anesthesia. A dosing group of five animals was administered one of the dosing solutions. For oral dosing, an 11 cm Rusch 8 French catheter was adapted to a 1 ml syringe with a pipette tip. The syringe was filled with dosing solution by drawing the solution through the catheter, which was then wiped dry. The catheter was placed down the esophagus leaving 1 cm of tubing past the incisors. Solution was administered by pressing the syringe plunger.
(§4) Blood samples were collected serially from the tail artery, typically at time=0, 10, 20, 30, 60 and 90 minutes. […] Numbers were adjusted according to baseline values obtained at time=0. The results from the animals in each dosing group were averaged for each time point.

[3] = Insulin pulmonary delivery, serum insulin by ELISA, ratio to insulin-alone control; assay type: in vivo, Sprague-Dawley rats; settings: Table 9 pulmonary delivery, rats; volume 1 ml/kg, delivery agent compound 3 mg/kg, insulin 100 mg/kg (so in the source)
Method: Dosing compositions of delivery agent compound and human insulin in water were prepared. Typically, to 1.5 mg of delivery agent compound was added deionized water to bring the volume to 1.0 ml, and the solution was vortexed. […] The pH was adjusted to between about 7.0 to 8.5 with NaOH or HCl. […] The final delivery agent compound dose, insulin dose and volume dose amounts are listed below in Table 9.
The typical dosing and sampling protocols were as follows. […] A control group of five animals was dosed insulin alone. A tracheal instillator for rodents, equipped with light (available from Penn Century, Inc., Pittsburgh, Pa.) was filled with dosing solution and inserted down the throat until the needle went into the trachea (confirmed visually). The dosing solution was administered by pressing the plunger.
Blood samples from each animal were collected serially from the tail artery, typically at 5, 15, 30, 60 and 120 minutes after dosing. […] The ratio of the area under the curve (AUC) for the test group versus that of the control group is reported below. The ratio of the maximum serum insulin concentration (Cmax) for the test group versus that of the control group is also reported below.

[4] = Low molecular weight heparin (LMWH) oral/intracolonic delivery, plasma LMWH by anti-Factor Xa assay; assay type: in vivo, Sprague-Dawley rats; settings: rats
How it was run: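 LMWH (parnaparin) plus delivery agent in 25% aqueous propylene glycol, pH about 7, given orally or intracolonically. Citrated blood drawn by cardiac puncture under ketamine (88 mg/kg), typically at 0.5–4.0 h post-dose. Plasma LMWH measured by chromogenic anti-Factor Xa assay; peak of mean plasma concentrations reported.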

[5] = Interferon oral delivery, serum IFN by immunoassay; assay type: in vivo, Sprague-Dawley rats; settings: rats, delivery agent compound 200 mg/kg, IFN 1 mg/kg, 1 ml/kg
Method: Dosing solutions of delivery agent compound and human interferon (IFN) were prepared in deionized water. […] This mixture was vortexed and placed in a sonicator (about 37° C.). The pH was adjusted to about 7.0 to 8.5 with aqueous NaOH. The mixture was vortexed to produce a uniform suspension or solution, also using sonication and heat if necessary.
(§1) The typical dosing and sampling protocols were as follows.
Serum IFN concentrations were quantified using Cytoscreen Immunoassay Kit for human IFN-alpha (catalog # KHC4012 from Biosource International, Camarillo, Calif.). Previous studies indicated baseline values of about zero.

[6] = Insulin oral delivery, serum human insulin by ELISA; settings: rats
[7] = Daptomycin oral delivery, plasma daptomycin by HPLC; assay type: in vivo, Sprague-Dawley rats; settings: rats, delivery agent compound dose 200 mg/kg, daptomycin dose 50 mg/kg, volume dose 1 mL/kg
Method: Dosing solutions containing a delivery agent compound and daptomycin (Cubist Pharmaceuticals, Cambridge, Mass.) were prepared in 0.9% normal saline. […] This mixture was vortexed and placed in a sonicator (about 37° C.). The pH was adjusted to about 7.0-7.5 with aqueous HCl or NaOH. […] The mixture was vortexed to produce a uniform solution, also using sonication if necessary. The delivery agent compound solution was mixed with daptomycin from a stock solution (200 mg daptomycin/mL in 0.9% normal saline and the pH adjusted, if necessary, to between 6.0-7.0 with NaOH or HCl). The stock solution was stored frozen (−20° C.) wrapped in foil, then thawed and warmed gradually to about 25° C. before using. The delivery agent-daptomycin mixture was vortexed at low speed to produce a uniform solution. The pH was adjusted to about 7.0-7.5 with aqueous NaOH. The solution was then diluted with 0.9% normal saline to the desired volume (usually 2.0 ml) and concentration and stored wrapped in foil before use.
as §1
Heparinized rat blood samples were collected via the ventral tail artery, typically at 0.25, 0.5, 0.75, 1.0, 2.0, and 4.0 hours after dosing, and stored on ice. Blood samples were then spun (centrifuged) at 11,500 rpm for 4 minutes at 4° C. to obtain the plasma (supernatant), which was stored at −70° C. The plasma daptomycin concentrations were measured by isocratic reversed phase HPLC, keeping samples at 4° C. during analysis. Blank plasma studies show baseline values of zero.
Daptomycin blood concentrations results from the individual animals in each dosage group were averaged for each time point.

[8] = Salmon calcitonin (sCT) oral delivery, serum sCT by EIA; settings: rats, delivery agent compound dose 50 mg/kg, sCT dose 100 μg/kg
Method: as §2, §3, §4

[9] = Parathyroid hormone (PTH 1-34) oral/intracolonic delivery, serum PTH by radioimmunoassay; settings: rats, oral (PO); delivery agent compound dose 100 mg/kg, PTH dose 200 μg/kg, volume dose 1 ml/kg
Method: Oral gavage (PO) and/or intracolonic (IC) dosing solutions of delivery agent compound and human parathyroid hormone residues 1-34 (PTH) in deionized water were prepared. A solution of the compound was made either with the sodium salt of the delivery agent compound or by converting the free acid to its sodium salt.
The typical dosing and sampling protocols were as follows. Male Sprague-Dawley rats weighing between 200-250 g were fasted for 24 hours and administered ketamine (44 mg/kg) and chlorpromazine (1.5 mg/kg) 15 minutes prior to dosing and again as needed to maintain anesthesia. A dosing group of five animals was administered one of the dosing solutions. For oral gavage (PO), an 11 cm Rusch 8 French catheter was adapted to a 1 ml syringe with a pipette tip. The syringe was filled with dosing solution by drawing the solution through the catheter, which was then wiped dry. The catheter was placed down the esophagus leaving 1 cm of tubing past the incisors. The dosing solution was administered by pressing the syringe plunger. For intracolonic (IC) dosing, a 7.5 cm Rusch catheter tube (French 8 or 6) was adapted to a syringe with an Eppendorf pipette tip. The syringe was filled with the dosing solution by drawing the solution through the catheter tube. The catheter tube was wiped dry. K-Y jelly was applied to the tip, avoiding contact with the eye of the tube, and the tube was inserted into the colon through the anus until the tube was no longer visible. The dosing solution was injected by pressing the syringe plunger, and the tube was removed.
Previous studies indicated baseline values of about zero. Results from the animals in each group were averaged for each time point.

[10] = IC (intracolonic), delivery agent compound 50 mg/kg, heparin 25 mg/kg, volume dose 1 ml
[11] = IC, delivery agent compound 50 mg/kg, LMWH 750 IU/kg, 1 ml/kg, 50 mg/kg

SMILES: O=C(O)COc1ccccc1O [Compound 3]
Mean Peak APTT ± SD [1, 10]: 16.046 ± 0.481 s and 16.984 ± 1.45 s | Mean Peak Serum sCT (pg/ml ± SD) (SE) [2]: 0 ± 81 pg/mL

Cmax (serum insulin) [3]: 130.9724 μU/ml | melting point: 60 to 64 °C
SMILES: O=C(O)CCCCCCCOc1ccccc1O [Compound 7, 8-(2-hydroxyphenoxy)octanoic acid]
Mean Peak APTT ± SD [1, 10]: 130.5 ± 42.6 s and 92 ± 40.3 s and 99.4 ± 25.5 s

Mean Peak Plasma LMWH Concentration ± SD ([4]; IC, delivery agent compound 10 mg/kg, LMWH 750 IU/kg, 1 ml/kg): 0.2 ± 0.077 IU/ml | Mean Peak Plasma LMWH Concentration ± SD ([4]; IC, delivery agent compound 50 mg/kg, LMWH 751 IU/kg, 1 ml/kg): 1.5 ± 0.23 IU/ml | Mean Peak Plasma LMWH Concentration ± SD ([4]; PO, delivery agent compound 300 mg/kg, LMWH 3000 IU/kg, 3 ml/kg): 0.137 ± 0.18 IU/ml | Mean Peak Serum [IFN] ± SD [5]: 1.6362 ± 1.68 ng/mL | Mean Peak Serum [INS] ± SD ([6]; delivery agent compound 100 mg/kg, insulin 3 mg/kg, 0.5 ml/kg): 205.4 ± 333.4 μU/ml | Mean plasma Cmax [daptomycin] ± SD [7]: 16110 ± 17580 ng/mL | Mean Peak Serum sCT (pg/ml ± SD) (SE) ([8]; dose volume 0.5 (ml)): 445 ± 221 pg/mL | Mean Peak Serum sCT (pg/ml ± SD) (SE) ([8]; dose volume 1 (ml)): 316 ± 476 pg/mL | Mean Peak Serum [PTH] (pg/mL) ± SD [9]: 276 ± 252 pg/mL
SMILES: CC(=O)c1ccccc1OCCCCCCCC(=O)O [Compound 12]
Mean Peak APTT ± SD ([1]; PO (oral gavage), delivery agent compound 300 mg/kg, heparin 100 mg/kg, volume dose 3 ml): 201.4 ± 45.7 s | Mean Peak Plasma LMWH Concentration ± SD [4, 11]: 1.7 ± 0.308 IU/ml and 1.74 ± 0.304 IU/ml and 2.012 ± 0.124 IU/ml and 1.498 ± 0.462 IU/ml

SMILES: NC(=O)c1ccccc1OCCCCCCCC(=O)O [Compound 30, 8-(2-carboxamidophenoxy)caprylic acid]
Mean Peak APTT ± SD [1, 10]: 50.9 ± 20.5 s | Mean Peak Plasma LMWH Concentration ± SD [4, 11]: 0.162 ± 0.094 IU/ml and 0.288 ± 0.152 IU/ml | Mean Peak Serum [INS] ± SD ([6]; delivery agent compound 200 mg/kg, insulin 0.5 mg/kg, 1 ml/kg): 21.88 ± 13.4 μU/ml | Mean plasma Cmax [daptomycin] ± SD [7]: 3060 ± 780 ng/mL | Mean Peak Serum [PTH] (pg/mL) ± SD [9]: 78 ± 71 pg/mL

Source: patent publication US8410309B2, “Phenoxy carboxylic acid compounds and compositions for delivering active agents” (Emisphere Technologies, Inc., priority 1999, dated 2013)
